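Results reflect a 48-hour exposure of cells in 96-well plates to compound at five concentrations. At the GI50, growth is halved.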 Active and inactive are the calls of the source. Rule as the data show it: active = GI50 up to about 1.1 µM and inactive = higher.
Tests used:
Experiment in all cases: NCI-60 cell line screen, 48 h
786-0 = tested on: 786-0
A498 = tested on: A498
A549 = tested on: A549
ACHN = tested on: ACHN
BT-549 = tested on: BT-549
CAKI-1 = tested on: CAKI-1
CCRF-CEM = tested on: CCRF-CEM
COLO 205 = tested on: COLO 205
DU-145 = tested on: DU-145
EKVX = tested on: EKVX
HCC 2998 = tested on: HCC 2998
HCT-116 = tested on: HCT-116
HCT-15 = tested on: HCT-15
HL-60 = tested on: HL-60
HOP-62 = tested on: HOP-62
HOP-92 = tested on: HOP-92
HT-29 = tested on: HT-29
Hs-578T = tested on: Hs-578T
IGROV-1 = tested on: IGROV-1
K562 = tested on: K562
KM12 = tested on: KM12
LOX IMVI = tested on: LOX IMVI
M14 = tested on: M14
MCF7 = tested on: MCF7
MDA-MB-231 = tested on: MDA-MB-231
MDA-MB-435 = tested on: MDA-MB-435
MDA-N = tested on: MDA-N
MOLT-4 = tested on: MOLT-4
Malme-3M = tested on: Malme-3M
NCI-H226 = tested on: NCI-H226
NCI-H23 = tested on: NCI-H23
NCI-H460 = tested on: NCI-H460
NCI-H522 = tested on: NCI-H522
NCI/ADR-RES = tested on: NCI/ADR-RES
OVCAR-4 = tested on: OVCAR-4
OVCAR-5 = tested on: OVCAR-5
PC-3 = tested on: PC-3
RPMI-8226 = tested on: RPMI-8226
RXF 393 = tested on: RXF 393
SF-268 = tested on: SF-268
SF-295 = tested on: SF-295
SK-MEL-28 = tested on: SK-MEL-28
SK-MEL-2 = tested on: SK-MEL-2
SK-MEL-5 = tested on: SK-MEL-5
SK-OV-3 = tested on: SK-OV-3
SN12C = tested on: SN12C
SNB-19 = tested on: SNB-19
SR = tested on: SR
SW-620 = tested on: SW-620
T47D = tested on: T47D
TK-10 = tested on: TK-10
U-251 = tested on: U-251
UACC-257 = tested on: UACC-257
UACC-62 = tested on: UACC-62
UO-31 = tested on: UO-31
OVCAR-3 = tested on: OVCAR-3
OVCAR-8 = tested on: OVCAR-8
SF-539 = tested on: SF-539
SNB-75 = tested on: SNB-75

For `CCn1nc2c3c(ncn3C(C)(C)O2)c1=O`, the GI50 (786-0) was > 100 µM (inactive), the GI50 (A498) was > 100 µM (inactive) and the GI50 (A549) was > 100 µM (inactive). For the same compound, the GI50 (ACHN) was > 100 µM (inactive), the GI50 (BT-549) was > 100 µM (inactive) and the GI50 (CAKI-1) was > 100 µM (inactive). The GI50 (CCRF-CEM) was > 100 µM (inactive), the GI50 (COLO 205) was > 100 µM (inactive) and the GI50 (DU-145) was > 100 µM (inactive). The GI50 (EKVX) was > 100 µM (inactive), the GI50 (HCC 2998) was > 100 µM (inactive) and the GI50 (HCT-116) was > 100 µM (inactive). The GI50 (HCT-15) was over 100 µM, the GI50 (HL-60) was > 100 µM (inactive) and the GI50 (HOP-62) was > 100 µM (inactive). For the same compound, the GI50 (HOP-92) was > 100 µM (inactive), the GI50 (HT-29) was > 100 µM (inactive) and the GI50 (Hs-578T) was > 100 µM (inactive). For the same compound, the GI50 (IGROV-1) was > 100 µM (inactive), the GI50 (K562) was > 100 µM (inactive) and the GI50 (KM12) was > 100 µM (inactive). For the same compound, the GI50 (LOX IMVI) was > 100 µM (inactive), the GI50 (M14) was > 100 µM (inactive) and the GI50 (MCF7) was > 100 µM (inactive). The GI50 (MDA-MB-231) was > 100 µM (inactive), the GI50 (MDA-MB-435) was > 100 µM (inactive) and the GI50 (MDA-N) was > 100 µM (inactive). The GI50 (MOLT-4) was > 100 µM (inactive), the GI50 (Malme-3M) was > 100 µM (inactive) and the GI50 (NCI-H226) was > 100 µM (inactive). For the same compound, the GI50 (NCI-H23) was > 100 µM (inactive), the GI50 (NCI-H460) was > 100 µM (inactive) and the GI50 (NCI-H522) was > 100 µM (inactive). For the same compound, the GI50 (NCI/ADR-RES) was > 100 µM (inactive), the GI50 (OVCAR-4) was > 100 µM (inactive) and the GI50 (OVCAR-5) was > 100 µM (inactive). For the same compound, the GI50 (PC-3) was > 100 µM (inactive), the GI50 (RPMI-8226) was > 100 µM (inactive) and the GI50 (RXF 393) was > 100 µM (inactive). The GI50 (SF-268) was > 100 µM (inactive), the GI50 (SF-295) was > 100 µM (inactive) and the GI50 (SK-MEL-28) was > 100 µM (inactive). The GI50 (SK-MEL-2) was > 100 µM (inactive), the GI50 (SK-MEL-5) was > 100 µM (inactive) and the GI50 (SK-OV-3) was > 100 µM (inactive). For the same compound, the GI50 (SN12C) was > 100 µM (inactive), the GI50 (SNB-19) was > 100 µM (inactive) and the GI50 (SR) was > 100 µM (inactive). For the same compound, the GI50 (SW-620) was > 100 µM (inactive), the GI50 (T47D) was > 100 µM (inactive) and the GI50 (TK-10) was > 100 µM (inactive). The GI50 (U-251) was > 100 µM (inactive), the GI50 (UACC-257) was > 100 µM (inactive) and the GI50 (UACC-62) was > 100 µM (inactive). For the same compound, the GI50 (UO-31) was > 100 µM (inactive).
`CC(=O)C(C(=N)C#N)C(=O)Nc1ccccc1` (configuration not stated) was tested, and the GI50 (786-0) was > 100 µM (inactive), the GI50 (A498) was > 100 µM (inactive) and the GI50 (A549) was > 100 µM (inactive). For the same compound, the GI50 (ACHN) was > 100 µM (inactive), the GI50 (BT-549) was > 100 µM (inactive) and the GI50 (CAKI-1) was > 100 µM (inactive). For the same compound, the GI50 (CCRF-CEM) was > 100 µM (inactive), the GI50 (COLO 205) was > 100 µM (inactive) and the GI50 (DU-145) was > 100 µM (inactive). For the same compound, the GI50 (EKVX) was > 100 µM (inactive), the GI50 (HCT-116) was > 100 µM (inactive) and the GI50 (HCT-15) was over 100 µM. For the same compound, the GI50 (HOP-62) was > 100 µM (inactive), the GI50 (HOP-92) was > 100 µM (inactive) and the GI50 (HT-29) was > 100 µM (inactive). The GI50 (Hs-578T) was 44.9 µM (inactive), the GI50 (IGROV-1) was > 100 µM (inactive) and the GI50 (K562) was > 100 µM (inactive). For the same compound, the GI50 (KM12) was > 100 µM (inactive), the GI50 (LOX IMVI) was > 100 µM (inactive) and the GI50 (M14) was > 100 µM (inactive). For the same compound, the GI50 (MCF7) was > 100 µM (inactive), the GI50 (MDA-MB-231) was > 100 µM (inactive) and the GI50 (MDA-MB-435) was > 100 µM (inactive). For the same compound, the GI50 (MDA-N) was > 100 µM (inactive), the GI50 (MOLT-4) was > 100 µM (inactive) and the GI50 (Malme-3M) was > 100 µM (inactive). For the same compound, the GI50 (NCI-H226) was > 100 µM (inactive), the GI50 (NCI-H23) was > 100 µM (inactive) and the GI50 (NCI-H460) was > 100 µM (inactive). The GI50 (NCI-H522) was > 100 µM (inactive), the GI50 (NCI/ADR-RES) was > 100 µM (inactive) and the GI50 (OVCAR-3) was > 100 µM (inactive). The GI50 (OVCAR-4) was > 100 µM (inactive), the GI50 (OVCAR-5) was > 100 µM (inactive) and the GI50 (OVCAR-8) was > 100 µM (inactive). For the same compound, the GI50 (PC-3) was > 100 µM (inactive), the GI50 (RPMI-8226) was > 100 µM (inactive) and the GI50 (RXF 393) was > 100 µM (inactive). The GI50 (SF-268) was > 100 µM (inactive), the GI50 (SF-295) was > 100 µM (inactive) and the GI50 (SF-539) was > 100 µM (inactive). The GI50 (SK-MEL-28) was > 100 µM (inactive), the GI50 (SK-MEL-2) was > 100 µM (inactive) and the GI50 (SK-MEL-5) was > 100 µM (inactive). The GI50 (SK-OV-3) was > 100 µM (inactive), the GI50 (SN12C) was > 100 µM (inactive) and the GI50 (SNB-19) was > 100 µM (inactive). The GI50 (SNB-75) was > 100 µM (inactive), the GI50 (SR) was > 100 µM (inactive) and the GI50 (SW-620) was > 100 µM (inactive). For the same compound, the GI50 (T47D) was > 100 µM (inactive), the GI50 (TK-10) was > 100 µM (inactive) and the GI50 (U-251) was > 100 µM (inactive). For the same compound, the GI50 (UACC-257) was > 100 µM (inactive) and the GI50 (UACC-62) was > 100 µM (inactive).
`O=C(O)C12CC3(C(=O)O)CC(C(=O)O)(CC(C(=O)O)(C1)C3=O)C2=O` was tested, and the GI50 (786-0) was > 100 µM (inactive), the GI50 (A498) was > 100 µM (inactive) and the GI50 (A549) was > 100 µM (inactive). For the same compound, the GI50 (ACHN) was > 100 µM (inactive), the GI50 (BT-549) was > 100 µM (inactive) and the GI50 (CAKI-1) was > 100 µM (inactive). For the same compound, the GI50 (CCRF-CEM) was > 100 µM (inactive), the GI50 (COLO 205) was > 100 µM (inactive) and the GI50 (DU-145) was > 100 µM (inactive). The GI50 (EKVX) was > 100 µM (inactive), the GI50 (HCT-116) was > 100 µM (inactive) and the GI50 (HCT-15) was over 100 µM. The GI50 (HOP-62) was > 100 µM (inactive), the GI50 (HOP-92) was > 100 µM (inactive) and the GI50 (HT-29) was > 100 µM (inactive). For the same compound, the GI50 (Hs-578T) was > 100 µM (inactive), the GI50 (IGROV-1) was > 100 µM (inactive) and the GI50 (K562) was > 100 µM (inactive). The GI50 (KM12) was > 100 µM (inactive), the GI50 (LOX IMVI) was > 100 µM (inactive) and the GI50 (M14) was > 100 µM (inactive). For the same compound, the GI50 (MCF7) was > 100 µM (inactive), the GI50 (MDA-MB-231) was > 100 µM (inactive) and the GI50 (MDA-MB-435) was > 100 µM (inactive). The GI50 (MDA-N) was > 100 µM (inactive), the GI50 (MOLT-4) was > 100 µM (inactive) and the GI50 (Malme-3M) was > 100 µM (inactive). For the same compound, the GI50 (NCI-H226) was > 100 µM (inactive), the GI50 (NCI-H23) was > 100 µM (inactive) and the GI50 (NCI-H460) was > 100 µM (inactive). The GI50 (NCI-H522) was > 100 µM (inactive), the GI50 (NCI/ADR-RES) was > 100 µM (inactive) and the GI50 (OVCAR-3) was > 100 µM (inactive). The GI50 (OVCAR-4) was > 100 µM (inactive), the GI50 (OVCAR-5) was > 100 µM (inactive) and the GI50 (OVCAR-8) was > 100 µM (inactive). For the same compound, the GI50 (PC-3) was > 100 µM (inactive), the GI50 (RPMI-8226) was > 100 µM (inactive) and the GI50 (RXF 393) was > 100 µM (inactive). The GI50 (SF-268) was > 100 µM (inactive), the GI50 (SF-295) was > 100 µM (inactive) and the GI50 (SK-MEL-28) was > 100 µM (inactive). The GI50 (SK-MEL-2) was > 100 µM (inactive), the GI50 (SK-MEL-5) was > 100 µM (inactive) and the GI50 (SK-OV-3) was > 100 µM (inactive). For the same compound, the GI50 (SN12C) was > 100 µM (inactive), the GI50 (SNB-19) was > 100 µM (inactive) and the GI50 (SNB-75) was > 100 µM (inactive). For the same compound, the GI50 (SR) was > 100 µM (inactive), the GI50 (SW-620) was > 100 µM (inactive) and the GI50 (T47D) was > 100 µM (inactive). The GI50 (TK-10) was > 100 µM (inactive), the GI50 (U-251) was > 100 µM (inactive) and the GI50 (UACC-257) was > 100 µM (inactive). For the same compound, the GI50 (UACC-62) was > 100 µM (inactive) and the GI50 (UO-31) was > 100 µM (inactive).

— ChEMBL document CHEMBL1201862, “PubChem BioAssay data set” (2004)
